Each block holds one compound with its values, some of them ahead of it. Residues, ends and D or L forms follow the SMILES beside them. *: point of attachment. Cbz = O=C(OCc1ccccc1)*; CH2F = FC*
Tests used:
stimulated T lymphocytes = assay: MTT cell viability assay, stimulated (phytohemagglutinin) CD4+ T lymphocytes; format: cell-based, human; details: for effect on cell viability, alone: 24 h; for IC50: Homo sapiens, T-lymphocyte, 48 h, read-out: IC50 values of cells treated for 48 hours
Procedure: (§1) To determine how these inhibitors could affect the viability of the primary CD4^+ T lymphocytes (both unstimulated and stimulated) and T-ALL cells, we performed MTT assays. […] Except for the unstimulated T lymphocytes, BGT226 and the mTORC1/2 inhibitor Torin-2 turned out to be the most powerful drugs in these cells. For unstimulated T lymphocytes, there was no relevant inhibition for both drugs (IC50 > 2 μM).
(§2) Peripheral Blood CD4+ T lymphocytes from healthy donors were obtained with informed consent according to institutional guidelines and isolated with Ficoll-Paque and magnetic beads labelling protocols (Dynabeads, Monza MI, Italy). Whole blood or buffy coat were diluted with PBS containing 0.1% BSA and 0.6% Na-citrate or 2 mM EDTA (without Ca2+ and Mg2+) in ratio 1:1. Thirty-five ml of the diluted sample were layered over 15 ml of Ficoll-Paque medium and centrifuged at 600 g for 40 minutes at 20°C. The peripheral blood mononuclear cell (PMNC) layer was transferred to centrifuge tube containing three volumes of PBS and centrifuged at 100 g for 10 minutes at 20°C. This step was repeated twice, supernatant was discarded and cells were suspended in complete RPMI-1640 medium.
(§3) 500 μl PMNC were transferred into a test tube, at a density of 5 × 10^7 cells/ml supplemented with100 μl of heat inactivated FBS and antibody mix and incubated at 4°C for 20 minutes. Followed by addition of 4 ml isolation buffer and centrifuged at 350 g at 4°C for 8 minutes. The supernatant discarded, and the pelleted cells were suspended in 500 μl of isolation buffer, added with 500 μl of pre-warmed dynabeads and incubated for 15 min at 20°C. The cells bound to beads were resuspended using 4 ml isolation buffer. The supernatant containing the human CD4^+ T lymphocytes was obtained by placing the resuspended cells in magnet for 2 minutes. The human CD4^+ T lymphocytes were grown in complete RPMI-1640 medium with 10μg/ml phytohemagglutinin at a density of 1 × 10^6 cells/ml, in a CO2 incubator at 37°C for 24 h.
(§4) MTT (3-[4,5-Dimethylthythiazol-2-yl]-2,5-Diphenyltetrazolium Bromide) assays were performed to assess the sensitivity of cells to drugs, as described.

JURKAT cells = assay: MTT cell viability assay, JURKAT; format: cell-based, human; details: for effect on cell viability, alone: 24 h; for IC50: Homo sapiens, 48 h, read-out: IC50 values of cells treated for 48 hours
Procedure: as §1
(§5) T-acute lymphoblastic leukemia cell lines obtained from Deutsche Sammlung von Mikroorganismen und Zellkulturen GmbH (Braunschweig, Germany). JURKAT and MOLT-4 were maintained in RPMI-1640 medium supplemented with 10% heat-inactivated fetal bovine serum (FBS), 100 units/ml penicillin and […] streptomycin at a density of 0.5 to 2 × 10^6 cells/ml and were incubated at 37°C with 5% CO2.
as §4

[1] = test system: unstimulated T lymphocytes; assay: MTT cell viability assay, unstimulated CD4+ T lymphocytes; format: cell-based; details: Homo sapiens, T-lymphocyte, 48 h, read-out: IC50 values of cells treated for 48 hours
Procedure: To determine how these inhibitors could affect the viability of the primary CD4^+ T lymphocytes (both unstimulated and stimulated) and T-ALL cells, we performed MTT assays. Cells were incubated for 48 h with the inhibitors, and then cell survival was analyzed (Figure 2A and Table 1). Except for the unstimulated T lymphocytes, BGT226 and the mTORC1/2 inhibitor Torin-2 turned out to be the most powerful drugs in these cells. For unstimulated T lymphocytes, there was no relevant inhibition for both drugs (IC50 > 2 μM).
as §2, §3, §4

MOLT-4 cells = assay: MTT cell viability assay, MOLT-4; format: cell-based, human; details: for IC50: Homo sapiens, MOLT-4, MTT, 48 h, read-out: IC50 values of cells treated for 48 hours
Procedure: as §1, §5, §4

- IC50 (MOLT-4 cells): 60 nM
- IC50 (JURKAT cells): 80 nM
SMILES: COc1ccc(-c2ccc3ncc4c(c3c2)n(-c2ccc(N3CCNCC3)c(C(F)(F)F)c2)c(=O)n4C)cn1 [BGT226]
- IC50 [1]: > 2000 nM
- IC50 (stimulated T lymphocytes): 1610 nM

- IC50 (MOLT-4 cells): 1580 nM
- IC50 (JURKAT cells): > 2000 nM
SMILES: NC1(c2ccc(-c3nc4ccn5c(=O)[nH]nc5c4cc3-c3ccccc3)cc2)CCC1 [MK-2206]
- IC50 [1]: > 2000 nM
- IC50 (stimulated T lymphocytes): > 2000 nM

- IC50 (MOLT-4 cells): 100 nM
- IC50 (JURKAT cells): 100 nM
SMILES: Nc1ccc(-c2ccc3ncc4ccc(=O)n(-c5cccc(C(F)(F)F)c5)c4c3c2)cn1 [Torin-2, 9-(6-aminopyridin-3-yl)-1-(3-(trifluoromethyl)phenyl)benzo[h][1,6]naphthyridin-2(1H)-one]
- IC50 [1]: > 2000 nM
- IC50 (stimulated T lymphocytes): 1800 nM

- IC50 (MOLT-4 cells): 520 nM
- IC50 (JURKAT cells): 950 nM
SMILES: FC(F)c1nc2ccccc2n1-c1nc(N2CCOCC2)nc(N2CCOCC2)n1 [ZSTK474]
- IC50 [1]: > 2000 nM
- IC50 (stimulated T lymphocytes): > 2000 nM

Second part, the compound before the results:

SMILES: Cn1cnc(N)c2ncnc1-2 [3-MA, 3-Methyladenine]
- effect on cell viability, alone (stimulated T lymphocytes; even at 10 μM): did not affect cell viability
- effect on cell viability, alone (JURKAT cells; even at 10 μM): did not affect cell viability

SMILES: CO/C1=C\C(C)=C\[C@@H](C)[C@@H](O)[C@@H](C)C/C(C)=C/C=C/[C@H](OC)[C@@H]([C@@H](C)[C@@H](O)[C@H](C)[C@@]2(O)C[C@@H](O)[C@H](C)[C@@H](C(C)C)O2)OC1=O [Bafilomycin A1]
- effect on cell viability, alone (stimulated T lymphocytes; even at 4 μM): did not affect cell viability
- effect on cell viability, alone (JURKAT cells; even at 4 μM): did not affect cell viability

SMILES: COC(=O)C[C@H](NC(=O)[C@H](C)NC(=O)[C@@H](NC(=O)OCc1ccccc1)C(C)C)C(=O)CF [z-VAD-fmk] (Cbz-Val-Ala-Asp(OMe)-CH2F)
- effect on cell viability, alone (stimulated T lymphocytes; 25 μM): no relevant effect on cell viability
- effect on cell viability, alone (MOLT-4 cells; MOLT-4, alone, 25 μM, 24 h, MTT): no relevant effect on cell viability
